Test results as given in patent US4735953A, “Pharmaceutical preparation for learning stimulation and memory improvement” (priority 1986, dated 1988).

Legend:
[1] = system: patients; experiment: Tolerability and side effects in patients; type: in vivo, human
[2] = Allergenic activity tests
Description: Allergenic activity tests were also carried out for the preparation according to the present invention.

[3] = system: learning ability of rats preliminarily sorted out for poor learning ability; experiment: Active avoidance learning in a shuttle chamber, rats sorted out for poor learning ability; type: in vivo, rat; conditions: poorly learning rats
Excerpt: (§1) In these experiments rats are taught to avoid an electric shock by escaping into a next chamber communicating with the first chamber by means of a special opening--a door. An electric current is applied to the chamber door consisting of metal plates. A conditional irritator is a light signal together with a sound click. The learning series consisted of 50 combinations. The number of combinations necessary for the animal's learning to escape into another chamber in response to the conditional signal was determined. Five correct responses out of 6 where regarded as the proof of stability of the acquired knowledge and were denoted as a "learning criterion". After 7 days the educational procedure was repeated, and again the number of combinations necessary to acquire the "learning criterion" was determined. In the case of difference between the first and second readings the percentage of retention of the acquired knowledge was calculated.
(§2) In this experiment the effect of the preparation according to the present invention and prior art preparations was separately evaluated for the purpose of comparison on well-learning and on specially selected poorly learning rats. […] To the poorly learning rats the animals were assigned which reached no "learning criterion" in the teaching series of 50 combinations, or, in other words, a stable knowledge of active avoidance was not worked out in them. […] The preparation according to the present invention and the prior art comparison preparations were administered before the first teaching series or thereafter.
(§3) Also studied were the effects produced upon a single and repeated administration of the preparation according to the present invention for 14 days.

[4] = Solubility; type: physicochemical
[5] = system: mice; experiment: Acute toxicity, mice; type: in vivo, mouse; conditions: single intraperitoneal
Description: The preparation according to the present invention was also tested for acute and chronic toxicity.

[6] = system: patients; experiment: Clinical study on patients with memory disorders, compared to pyracetam; type: in vivo, human
Excerpt: The preparation according to the present invention was studied in clinics on 130 patients.
As regards diagnosis and sex the patients were distributed as follows:
skull-brain traumata with memory disturbance: 75 patients (52 men and 23 women)
Alzheimer's disease: 15 patients (3 men and 12 women)
Pick's disease: 5 patients (5 men)
Senile dementia: 15 patients (4 men and 11 women)
Vascular dementia (cerabral atero-sclerosis, hypertonic disease): 20 patients (7 men and 13 women)
In the group of patients with skull-brain trauma the patient's age varied from 17 to 60 years, in the other patients--from 52 to 75 years.
In addition to clinico-psychopathological methods of investigation, all the patients were subjected to neuropsychological studies during which specific tasks were offered them to solve. In doing so, the response was assessed against a 4-points scale: 3--maximally pronounced disorder, full or substantially full incapability to deal with the task set; 2--a medium degree of manifestation of the deficiency, solving the task with the experimentator's assistance; 1--minor errors, independent correction of mistakes; 0--lack of disturbances.
The treatment course duration is 30-60 days. In the case of an acute skull-brain trauma (65 patients) the treatment started 15-20 days after the moment of trauma and lasted for 20-30 days.
It is known that the function of memory has a complex brain organization and different zones of brains take part in its regulation. During the studies a multi-faceted assessment of the memory function was carried out; there were assessed: (1) mnestic component of the environmental orientation of a patient; (2) involuntary memory for current events; (3) intentional exo-experimental memory; (4) volume and soundness of audio-speaking memory; (5) volume and soundness of visual memory; (6) operative memory; (7) memory for knowledge acquired before the disease.

[7] = system: dogs; experiment: Chronic toxicity, dogs; type: in vivo, dog; conditions: hypodermal, 6 months
Excerpt: (§4) The chronic toxicity of the preparation was studied on three species of animals (rats, dogs, rabbits). In chronic tests on the above-mentioned animals the effect of a long-time hypodermal administration of the preparation according to the present invention on the general state and mass of animals, hemogram, cardio-vascular system, breathing central nervous system, functional state of kidneys, liver, thyroid gland was studied. […] The doses of the preparation employed in the experiments surpassed the required dose for a human being (per kilogram of bodymass) by 5-10 times.

[8] = system: rabbits; experiment: Chronic toxicity, rabbits; type: in vivo, rabbit; conditions: hypodermal, 2 months
Excerpt: as §4

[9] = system: learning ability of rats in a shuttle chamber; experiment: Active avoidance learning in a shuttle chamber, rats; type: in vivo, rat
Excerpt: as §1, §2, §3

[10] = system: rats; experiment: Chronic toxicity, rats; type: in vivo, rat; conditions: hypodermal, 3 months
Excerpt: as §4

[11] = Carcinogenic, mutagenic, teratogenic, embryotoxic effect
[12] = rats, hypodermally 1 mg/kg 14 days
[13] = rats, hypodermally 5 mg/kg 14 days
[14] = rats, hypodermally 5 mg/kg after teaching

## Cl.Nc1c2c(nc3c1CCC3)CCCC2.O [preparation of the invention, 9-amino-2,3,5,6,7,8-hexahydro-1H-cyclopenta(b)quinoline monohydrate hydrochloride]
[1]; eliminated by lowering dose or temporary suspension
  side effects, rare cases: reduction or elevation of arterial pressure and bradycardia
[1]; patients
  tolerability: well-bearable by patients
[1]; signs of stimulation of m-cholinergic systems
  side effects: nausea, diarrhea, less frequently--vomition
[2]
  allergenic effect: no allergenic effect
[3]; hypodermally 5 mg/kg
  % of knowledge retention: 64.3%
  Number of combinations till appearance of "learning criterion", I teaching: 21 ± 2.7
  Number of combinations till appearance of "learning criterion", II-checking of retention of knowledge: 7.5 ± 0.9
  Number of untaught animals in the group: 3/20
[3]; hypodermally I mg/kg
  % of knowledge retention: 57.5%
  Number of combinations till appearance of "learning criterion", I teaching: 24 ± 2.5
  Number of combinations till appearance of "learning criterion", II-checking of retention of knowledge: 10.2 ± 1.5
  Number of untaught animals in the group: 6/20
[4]; 95% ethanol
  solubility in 95% ethanol: less soluble in a 95% ethanol
[4]; acetone
  solubility in acetone: substantially insoluble
[4]; chloroform
  solubility in chloroform: substantially insoluble
[4]; diluted solutions of acids
  solubility in diluted solutions of acids: readily soluble in diluted solutions of acids
[4]; ether
  solubility in ether: substantially insoluble
[4]; water
  solubility in water: well soluble in water
[5]
  LD50: 44 mg/kg
[6]; Alzheimer's and Pick's diseases
  therapeutic effect: An essential amelioration
[6]; acute skull-brain trauma
  recovery of psychic functions: faster and more complete recovery of psychic functions
[6]; consequences of a vascular injury of brains
  therapeutic effect, memory: an improvement of memory was noted along with a higher working capacity
[6]; environmental orientation, past knowledge, involuntary, voluntary exo-experimental and operative memory
  effect on memory parameters: more complete and faster recovering effect
[6]; experimental and clinical studies
  effect on the functional symmetry of the brain and activity of the dominating hemisphere: enhanced activity of the dominating hemisphere
[6]; patients
  character of recovery (in words): constructive and environmental praxis recovered most efficiently along with reading ability and memory
  recovery of visual versus audio memory (in words): visual memory recovered faster than the audio memory
[6]; patients, 5 to 30 mg a day subcutaneous, 30-60 days
  restoration of psychic functions as compared to pyracetam: faster and more complete restoration of psychic functions
[7]
  chronic toxicity: no toxic effect
[8]
  chronic toxicity: no toxic effect
[9]; rats, 1, 5 and 10 mg/kg
  learning capacity (in words): stimulate the learning capacity of rats
[9]; rats, Tables 1 and 2
  activity on learning versus comparison preparations (in words): substantially more active than 4-aminopyridine, physostigmine, pyracetam and lysyl-vasopressin
[9]; rats, hypodermally 1 mg/kg
  Number of combinations to reach the "learning criterion" in II teaching series (after 7 days): 4.2 + 0.8
  Number of combinations to reach the "learning criterion" in the I teaching series: 14.2 + 1.2
  Number of non-taught animals in the group: 3/20
  Percentage knowledge retention: 70.4%
[9]; [12]
  Number of combinations to reach the "learning criterion" in II teaching series (after 7 days): 3.9 ± 0.8
  Number of combinations to reach the "learning criterion" in the I teaching series: 14.7 ± 1.9
  Number of non-taught animals in the group: 2/20
  Percentage knowledge retention: 72.7%
[9]; rats, hypodermally 5 mg/kg
  Number of combinations to reach the "learning criterion" in II teaching series (after 7 days): 2.6 + 0.3
  Number of combinations to reach the "learning criterion" in the I teaching series: 11.5 + 0.9
  Number of non-taught animals in the group: 1/20
  Percentage knowledge retention: 77.4%
[9]; [13]
  Number of combinations to reach the "learning criterion" in II teaching series (after 7 days): 4.4 ± 0.5
  Number of combinations to reach the "learning criterion" in the I teaching series: 14.8 ± 2.0
  Number of non-taught animals in the group: 2/20
  Percentage knowledge retention: 69.3%
[9]; [14]
  Number of combinations to reach the "learning criterion" in II teaching series (after 7 days): 7.2 ± 0.8
  Number of combinations to reach the "learning criterion" in the I teaching series: 19.0 ± 1.2
  Number of non-taught animals in the group: 1/20
  Percentage knowledge retention: 60%
[9]; rats, hypodermally 10 mg/kg
  Number of combinations to reach the "learning criterion" in II teaching series (after 7 days): 3.0 + 0.5
  Number of combinations to reach the "learning criterion" in the I teaching series: 12.9 + 0.8
  Number of non-taught animals in the group: 0/15
  Percentage knowledge retention: 76.7%
[9]; rats, per os 5 mg/kg
  Number of combinations to reach the "learning criterion" in II teaching series (after 7 days): 6.0 + 0.5
  Number of combinations to reach the "learning criterion" in the I teaching series: 12.8 + 1.7
  Number of non-taught animals in the group: 2/20
  Percentage knowledge retention: 60%
[9]; rats, two-weeks of administration
  stimulating effect as compared to single-time administration (in words): stimulating effect is also enhanced
[10]
  chronic toxicity: no toxic effect
[11]
  carcinogenic effect: neither provides a carcinogenic, mutagenic, teratogenic or embryotoxic effect
  embryotoxic effect: neither provides a carcinogenic, mutagenic, teratogenic or embryotoxic effect
  mutagenic effect: neither provides a carcinogenic, mutagenic, teratogenic or embryotoxic effect
  teratogenic effect: neither provides a carcinogenic, mutagenic, teratogenic or embryotoxic effect
